Consider two compounds from PMC10590383, “Repurposing conformational changes in ANL superfamily enzymes to rapidly generate biosensors for organic and amino acids” (Nature Communications, 2023).

As a reminder, the EC50 is the concentration at which the effect is half-maximal. A word on the Km: it is the substrate concentration at which the rate is half of its maximum.

Data set [1] is described as follows: Dependence of […]s on Mg2+ and ATP (fluorescence intensity). In kind it is biochemical. The settings on record: ATP +. An excerpt:
Ligand specificity is an important biosensors feature. Generally, the NRPS A domains have high specificity for their substrates because they are the first “gatekeeper” of NRPSs and ensure that the correct monomers are activated and thioesterified[32],[33]. […] Twenty proteinogenic amino acids were used to test the ligand specificity of […]s. […] We also investigated the dependence of […]s on Mg^2+ and ATP (Supplementary Fig. 4).
Supplementary Fig. 4 Dependence of GEC FINDER s on Mg2+ and ATP . a-j, Fluore scence intensities of
GECF IN DERs in the absence of any substra te, in the pre sence of Mg2+ alone, ATP alone, both Mg2+ and ATP, Mg2+
and ATP with re spective substra tes. Mg2+ concentra tion was 2.5 mM, and ATP concentra tion was 1 mM. a, 100 μM
data are provided as a Source Data file.

A further data set has as its target T1, GECFINDER-ATP (Bacillus subtilis, UniProt P39845).
T1 construct: gene ppsA; PpsA-GluA A domain; LE-cpEGFP-TR inserted between Asp425 and Asp426 in hinge A
The experiment in a line: Fluorescence dose-response of purified […]-ATP with ATP as the varied ligand (10 nM to 2 mM), 100 mM Tris pH 7.5, room temperature, excitation/emission 480/510 nm. It counts as biochemical. The settings on record: n = 3. On the procedure:
The study conducted dose–response curve, substrate specificity, and fluorescent spectrum analyses in 100-mM Tris buffer (pH = 7.5), while pH stability experiments were performed in 100-mM Tris buffer at three different pH values (6.5, 7.5, and 8.5) at room temperature. […] protein at a concentration of 0.75 μM, various small molecule concentrations, 1 mM ATP, and 2.5 mM MgCl2 were used in the experiments. Fluorescent signals were detected using a Microplate Reader (Synergy H4, Bio Tek) at an excitation/emission wavelength of 460 nm/510 nm or 480 nm/510 nm. The dose-response curve was determined immediately after the addition of the analyte. The total duration of the measurement was 15 min, with readings taken at one-minute intervals. The dose-response curve was plotted using the fluorescence values obtained after achieving stability in the fluorescence signal. The dose-response curves were fitted using the logistic model LOGISTIC5 available in Origin 2021, which could provide a more adequate fit to asymmetric dose-response data[62],[63]. […] The thermal stability of […] was analyzed using the UNcle multifunctional protein stability analysis system. […] Absolute fluorescence quantum yields were measured using an absolute photoluminescence quantum yield spectrometer (FS5, Edinburgh). […]

The next data set relates to At4CL2. The following applies: ATP Km of At4CL2, homolog of Nt4CL2; cited from earlier work.
Another data set concerns GrsA-Phe A domain. The settings on record: Km for ATP of GrsA-Phe A domain; cited from earlier work.
The nature of data set [2]: Dose–response curve of purified […] with 4-coumaric acid. It counts as biochemical. On the procedure: (§1) Fig. 3 Dose–response curves and fluorescence spectrums of […]s. a, c, e, g, i, k Dose–response curve of purified […]s with increasing concentrations of ligand in 100 mM Tris-HCl buffer (pH=7.5). […] All data shown are mean ± S.D. (n = 3 biologically independent samples). Source data are provided as a Source data file.
The study conducted dose–response curve, substrate specificity, and fluorescent spectrum analyses in 100-mM Tris buffer (pH = 7.5), while pH stability experiments were performed in 100-mM Tris buffer at three different pH values (6.5, 7.5, and 8.5) at room temperature. […] Fluorescent signals were detected using a Microplate Reader (Synergy H4, Bio Tek) at an excitation/emission wavelength of 460 nm/510 nm or 480 nm/510 nm. The dose-response curve was determined immediately after the addition of the analyte. The total duration of the measurement was 15 min, with readings taken at one-minute intervals. The dose-response curve was plotted using the fluorescence values obtained after achieving stability in the fluorescence signal. […] Excitation spectra were scanned from 300 to 540 nm with a step size of 5 nm, and the emission wavelength was set to 560 nm. Emission spectra were scanned from 470 to 700 nm with a step size of 5 nm, and the excitation wavelength was set to 450 nm. The thermal stability of […] was analyzed using the UNcle multifunctional protein stability analysis system. Measurements were performed in 20 mM MOPS buffer with 2 mM DTT at a sample concentration of 1 mg/mL. Absolute fluorescence quantum yields were measured using an absolute photoluminescence quantum yield spectrometer (FS5, Edinburgh).

The nature of data set [3]: Fluorescence spectra / excitation wavelength scan of […]s. In kind it is physicochemical. The following applies: Wavelength 300 nm. Here is the method:
as §1
(§2) The study conducted dose–response curve, substrate specificity, and fluorescent spectrum analyses in 100-mM Tris buffer (pH = 7.5), while pH stability experiments were performed in 100-mM Tris buffer at three different pH values (6.5, 7.5, and 8.5) at room temperature. […] protein at a concentration of 0.75 μM, various small molecule concentrations, 1 mM ATP, and 2.5 mM MgCl2 were used in the experiments. Fluorescent signals were detected using a Microplate Reader (Synergy H4, Bio Tek) at an excitation/emission wavelength of 460 nm/510 nm or 480 nm/510 nm. The dose-response curve was determined immediately after the addition of the analyte. The total duration of the measurement was 15 min, with readings taken at one-minute intervals. The dose-response curve was plotted using the fluorescence values obtained after achieving stability in the fluorescence signal. The dose-response curves were fitted using the logistic model LOGISTIC5 available in Origin 2021, which could provide a more adequate fit to asymmetric dose-response data[62],[63]. Excitation spectra were scanned from 300 to 540 nm with a step size of 5 nm, and the emission wavelength was set to 560 nm. Emission spectra were scanned from 470 to 700 nm with a step size of 5 nm, and the excitation wavelength was set to 450 nm. The thermal stability of […] was analyzed using the UNcle multifunctional protein stability analysis system. Measurements were performed in 20 mM MOPS buffer with 2 mM DTT at a sample concentration of 1 mg/mL. Absolute fluorescence quantum yields were measured using an absolute photoluminescence quantum yield spectrometer (FS5, Edinburgh).

The next data set deals with T2, GECFINDER-4CA (Nicotiana tabacum, UniProt O24146).
T2 construct: gene 4CL2; cpEGFP with fixed linkers (LE-cpEGFP-TR) inserted between Leu439 and Ile440 in hinge A of Nt4CL2
T2 sequence (O24146 2-542): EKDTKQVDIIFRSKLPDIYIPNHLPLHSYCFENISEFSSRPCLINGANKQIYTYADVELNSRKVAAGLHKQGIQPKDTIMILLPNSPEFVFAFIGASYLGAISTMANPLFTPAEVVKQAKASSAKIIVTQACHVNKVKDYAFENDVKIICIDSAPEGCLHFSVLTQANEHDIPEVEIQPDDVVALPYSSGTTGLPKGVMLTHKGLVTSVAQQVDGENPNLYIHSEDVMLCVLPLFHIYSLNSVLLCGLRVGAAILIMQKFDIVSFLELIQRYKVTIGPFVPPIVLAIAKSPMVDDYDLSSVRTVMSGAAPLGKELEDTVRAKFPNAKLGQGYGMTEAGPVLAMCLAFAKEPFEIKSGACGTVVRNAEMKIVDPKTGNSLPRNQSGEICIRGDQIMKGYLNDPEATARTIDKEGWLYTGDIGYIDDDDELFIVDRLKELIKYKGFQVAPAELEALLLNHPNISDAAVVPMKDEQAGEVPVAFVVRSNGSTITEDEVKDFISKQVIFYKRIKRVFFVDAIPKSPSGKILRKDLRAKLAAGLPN
The experiment in a line: Fluorescence dose-response of purified cpEGFP sensors (0.75 uM) in 100 mM Tris-HCl pH 7.5, room temperature, 1 mM ATP, 2.5 mM MgCl2; excitation 400, 460 or 480 nm by sensor, emission 510 nm; logistic five-parameter fit. In kind it is biochemical. The settings on record: n = 3. Here is the method:
Fig. 3 Dose–response curves and fluorescence spectrums of […]s. a, c, e, g, i, k Dose–response curve of purified […]s with increasing concentrations of ligand in 100 mM Tris-HCl buffer (pH=7.5). The normalized ΔF/F0 value increased after ligand binding. All data shown are mean ± S.D. (n = 3 biologically independent samples). b, d, f, h, j, l The fluorescence spectra of […]s changed as the ligand concentration increased. All data shown are mean ± S.D. (n = 3 biologically independent samples). Source data are provided as a Source data file.
as §2

Structures are written as SMILES.

T1 sequence (P39845 434-960): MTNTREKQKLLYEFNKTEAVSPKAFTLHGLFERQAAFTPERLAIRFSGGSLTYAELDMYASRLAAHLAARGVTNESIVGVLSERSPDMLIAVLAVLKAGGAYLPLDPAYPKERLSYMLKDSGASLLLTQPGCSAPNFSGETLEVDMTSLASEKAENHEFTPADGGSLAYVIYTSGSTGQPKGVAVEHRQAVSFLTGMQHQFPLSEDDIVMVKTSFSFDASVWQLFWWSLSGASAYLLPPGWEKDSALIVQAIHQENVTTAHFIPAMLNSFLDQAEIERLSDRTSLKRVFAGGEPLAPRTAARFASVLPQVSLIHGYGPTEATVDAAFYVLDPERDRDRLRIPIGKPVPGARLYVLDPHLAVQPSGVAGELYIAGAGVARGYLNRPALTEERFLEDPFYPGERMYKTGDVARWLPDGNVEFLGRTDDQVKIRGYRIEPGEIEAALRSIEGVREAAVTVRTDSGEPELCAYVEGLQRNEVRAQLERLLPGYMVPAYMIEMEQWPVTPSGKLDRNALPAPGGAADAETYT

`Nc1ncnc2c1ncn2[C@@H]1O[C@H](COP(=O)(O)OP(=O)(O)OP(=O)(O)O)[C@@H](O)[C@H]1O` [ATP, adenosine triphosphate]: the “fluorescence intensity, AVE of 3 repeats” value in data set [1] (Supplementary Fig. 4 a, Mg+ +, 4-coumaric acid -) is recorded as 2171.67; in data set [1] (Supplementary Fig. 4 a, Mg+ -, 4-coumaric acid -) it was 2266.67; in data set [1] (Supplementary Fig. 4 b, Mg+ +, phenylalanine -), 9194; in data set [1] (Supplementary Fig. 4 b, Mg+ -, phenylalanine -) it was 7173.67; in data set [1] (Supplementary Fig. 4 c, Mg+ +, glutamine -), 17330.3; in data set [1] (Supplementary Fig. 4 c, Mg+ -, glutamine -), 17083. For the same compound, the “fluorescence intensity, AVE of 3 repeats” value in data set [1] (Supplementary Fig. 4 e, Mg+ +, isoleucine -) came out at 12985; in data set [1] (Supplementary Fig. 4 e, Mg+ -, isoleucine -), 12174.7; in data set [1] (Supplementary Fig. 4 f, Mg+ +, histidine -) it was 25974; in data set [1] (Supplementary Fig. 4 f, Mg+ -, histidine -) it was 26138.3; in data set [1] (Supplementary Fig. 4 g, Mg+ +, leucine -), 7346.67; in data set [1] (Supplementary Fig. 4 g, Mg+ -, leucine -), 6910.33. Further, the “fluorescence intensity, AVE of 3 repeats” value in data set [1] (Supplementary Fig. 4 i, Mg+ +, tyrosine -) stood at 5938.67; in data set [1] (Supplementary Fig. 4 i, Mg+ -, tyrosine -), 5712; in data set [1] (Supplementary Fig. 4 j, Mg+ +, phenylalanine -), 7465; in data set [1] (Supplementary Fig. 4 j, Mg+ -, phenylalanine -), 7633; in data set [1] (Supplementary Fig. 4 h, Mg+ +, S-β-phenylalanine -), 5374.33; in data set [1] (Supplementary Fig. 4 h, Mg+ -, S-β-phenylalanine -), 5014. Further, the “fluorescence intensity, AVE of 3 repeats” value in data set [1] (Supplementary Fig. 4 d, Mg+ +, proline -) is 50889; in data set [1] (Supplementary Fig. 4 d, Mg+ -, proline -), 46119. On GECFINDER-ATP, the concentration for a half-maximal effect (EC50) was 69.3 ± 4.69 µM. Besides, the Km with At4CL2 was 163 µM; with GrsA-Phe A domain it was 150 µM.
For `O=C(O)/C=C/c1ccc(O)cc1` [4-coumaric acid], the “Dose-response, AVE of Repeat 1-3 (Fig. 3 a)” value in data set [2] (4-coumaric acid 0.001 μM) was found to be 0; in data set [2] (4-coumaric acid 0.01 μM), 0.02925; in data set [2] (4-coumaric acid 0.25 μM), 0.1354; in data set [2] (4-coumaric acid 0.5 μM), 0.2537; in data set [2] (4-coumaric acid 2.5 μM) it was 0.5733; in data set [2] (4-coumaric acid 5 μM) it was 0.6689. Also, the “Dose-response, AVE of Repeat 1-3 (Fig. 3 a)” value in data set [2] (4-coumaric acid 25 μM) is recorded as 0.7533; in data set [2] (4-coumaric acid 50 μM), 0.7561; in data set [2] (4-coumaric acid 250 μM), 0.7978; in data set [2] (4-coumaric acid 500 μM) it was 0.7717; in data set [2] (4-coumaric acid 2500 μM) it was 0.8533; in data set [2] (4-coumaric acid 5000 μM), 0.8286. Also, the “Wavelength scan, AVE of Repeat 1-3 (Fig. 3 b)” value in data set [3] (0.001 μM 4-coumaric acid) is 368; in data set [3] (2.5 μM 4-coumaric acid), 388.333; in data set [3] (250 μM 4-coumaric acid) it was 108.667. Further, the “fluorescence intensity, AVE of 3 repeats” value in data set [1] (Supplementary Fig. 4 a, Mg+ +, 4-coumaric acid +) is reported as 3682.33. In addition, the EC50 on GECFINDER-4CA came out at 1.03 ± 0.06 µM.
